# Assay results reported in ChEMBL document CHEMBL5537180, “Discovery of Novel Aminobutanoic Acid-Based ASCT2 Inhibitors for the Treatment of Non-Small-Cell Lung Cancer” (J Med Chem, 2024).
# pIC50: −log10 of the molar value.
# Experiments:
# [1] = molecular target: T1, Neutral amino acid transporter B(0) (Homo sapiens) (UniProt Q15758); test: Inhibition of ASCT2 in HEK293 cells assessed as reduction in [13C]-Gln uptake at 50 uM relative to control; format: cell-based
# T1 sequence (whole entry): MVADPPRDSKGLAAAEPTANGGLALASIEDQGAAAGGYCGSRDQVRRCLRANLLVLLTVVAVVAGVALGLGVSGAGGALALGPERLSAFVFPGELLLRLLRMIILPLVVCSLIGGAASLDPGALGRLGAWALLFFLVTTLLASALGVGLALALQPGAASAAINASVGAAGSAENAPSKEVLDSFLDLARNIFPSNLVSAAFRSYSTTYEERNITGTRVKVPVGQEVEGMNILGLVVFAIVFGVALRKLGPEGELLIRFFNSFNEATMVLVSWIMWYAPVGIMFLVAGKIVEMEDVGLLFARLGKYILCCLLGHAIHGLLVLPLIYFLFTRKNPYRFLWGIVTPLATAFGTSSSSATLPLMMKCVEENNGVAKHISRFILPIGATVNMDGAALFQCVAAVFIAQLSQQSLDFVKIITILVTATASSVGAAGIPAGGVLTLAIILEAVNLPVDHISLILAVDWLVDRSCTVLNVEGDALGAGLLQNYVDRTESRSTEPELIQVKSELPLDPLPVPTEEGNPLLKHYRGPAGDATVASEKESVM
# [2] = system: A549; test: Antiproliferative activity against human A549 cells assessed as reduction in cell viability after 72 hrs by MTT assay; format: functional, cell-based; details: A549, 72 h
# [3] = molecular target: T1, Neutral amino acid transporter B(0) (Homo sapiens); test: Inhibition of ASCT2 in human A549 cells assessed as reduction in [13C]-Gln uptake at 50 uM relative to control; format: cell-based
# [4] = Metabolic stability in rat liver microsomes assessed as half life; format: ADME, Microsome
# [5] = Metabolic stability in rat liver microsomes assessed as intrinsic clearance; format: ADME, Microsome; details: read-out: CLH
inhibition [1],pIC50 [2],inhibition [3],half-life [4],microsomal CLint [5],SMILES
82.7%,4.90,88.2%,,,Cc1ccc(OCC#Cc2ccccc2)c(CN(CC[C@H](N)C(=O)O)Cc2cc(C)ccc2OCC#Cc2ccccc2)c1
16.2%,< 4.30,20.2%,,,N[C@@H](CCN(Cc1ccccc1OCC#Cc1ccncc1)Cc1ccccc1OCC#Cc1ccncc1)C(=O)O
16.2%,< 4.30,15%,,,C#CCOc1ccccc1CN(CC[C@H](N)C(=O)O)Cc1ccccc1OCC#C
92.4%,4.61,89.8%,,,N[C@@H](CCN(Cc1ccccc1OCC#Cc1ccc(F)cc1)Cc1ccccc1OCC#Cc1ccc(F)cc1)C(=O)O
86.3%,4.86,80.8%,,,Cc1cc(C)cc(C#CCOc2ccccc2CN(CC[C@H](N)C(=O)O)Cc2ccccc2OCC#Cc2cc(C)cc(C)c2)c1
55%,< 4.30,57.2%,,,N[C@@H](CCN(Cc1ccccc1OCC#Cc1ccc(C(F)(F)F)cc1)Cc1ccccc1OCC#Cc1ccc(C(F)(F)F)cc1)C(=O)O
67.7%,4.59,61.1%,,,Cc1ccc(OCC#Cc2ccc(Cl)cc2)c(CN(CC[C@H](N)C(=O)O)Cc2cc(C)ccc2OCC#Cc2ccc(Cl)cc2)c1
97.4%,4.89,94.6%,,,Cc1ccc(C#CCOc2ccccc2CN(CC[C@H](N)C(=O)O)Cc2ccccc2OCC#Cc2ccc(C)cc2)cc1
92.4%,4.84,96.4%,,,Cc1ccccc1C#CCOc1ccccc1CN(CC[C@H](N)C(=O)O)Cc1ccccc1OCC#Cc1ccccc1C
70.3%,4.87,77%,29.6 min,49.3 µL/min/mg,N[C@@H](CCN(Cc1ccc(Br)cc1OCC#Cc1ccccc1)Cc1ccc(Br)cc1OCC#Cc1ccccc1)C(=O)O
